Laboratory results reported in US12692262B2, “Substituted ureas as orexin receptor agonists” (Merck Sharp & Dohme LLC, priority 2020, dated 2026).
pEC50: −log10 of the molar value.

Target: T1, human OX2R (Homo sapiens, UniProt O43614)
T1 construct: expressed in transfected cells; host or cells: CHO (Chinese hamster ovary) cells grown under G418 selection
T1 sequence (O43614 1-444): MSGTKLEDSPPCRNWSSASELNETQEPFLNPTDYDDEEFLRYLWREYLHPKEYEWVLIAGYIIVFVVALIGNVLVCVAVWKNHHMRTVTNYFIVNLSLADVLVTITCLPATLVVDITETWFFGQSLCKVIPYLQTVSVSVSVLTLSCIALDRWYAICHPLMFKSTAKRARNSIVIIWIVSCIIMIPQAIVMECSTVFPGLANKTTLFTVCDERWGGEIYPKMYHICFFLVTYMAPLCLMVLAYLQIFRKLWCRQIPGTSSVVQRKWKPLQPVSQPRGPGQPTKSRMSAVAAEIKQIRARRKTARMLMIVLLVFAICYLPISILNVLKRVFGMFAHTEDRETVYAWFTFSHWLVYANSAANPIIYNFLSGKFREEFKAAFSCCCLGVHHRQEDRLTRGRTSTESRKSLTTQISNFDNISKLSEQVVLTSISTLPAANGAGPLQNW
Assay: IPOne (IP-1 accumulation) assay in CHO cells expressing human OX2R
Assay type: cell-based
Details: for pEC50: CHO cells expressing human OX2R, IP-One assay, 2 h incubation, four parameter logistic fit, read-out: OX2R Potency, EC50; for % of maximum agonist effect (relative to Orexin A): percent effect vs mean max effect of a reference compound at 1 uM (100% activity vs Orexin A), human OX2R
Outline: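 CHO cells stably expressing human OX2R, grown in Iscove's modified DMEM with 10% FBS; agonist-driven IP-1 accumulation via the Gαq pathway measured by HTRF (D2/AB-cryptate detection after lysis). EC50 taken as the inflection point of a four-parameter logistic fit.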

CCC(CC(C)C(F)(F)F)NC(=O)N(CC)[C@H](C)c1cccc(-c2cn3ccnc3c(OC)n2)c1 (stereo partly drawn) [Example 2-3, 1-ethyl-1-((R)-1-(3-(8-methoxyimidazo[1,2-a]pyrazin-6-yl)phenyl)ethyl)-3-(6,6,6-trifluoro-5-methylhexan-3-yl)urea]
pEC50: 8.34 | % of maximum agonist effect (relative to Orexin A): 100.6%

CCN(C(=O)N[C@@H](CCC(F)(F)F)C(F)(F)F)[C@@H](c1cc(-c2nc(OC)c3nccn3c2C)c(OC)cn1)C(F)(F)F [Example 9-3, 1-ethyl-3-((S)-1,1,1,5,5,5-hexafluoropentan-2-yl)-1-((S)-2,2,2-trifluoro-1-(5-methoxy-4-(8-methoxy-5-methylimidazo[1,2-a]pyrazin-6-yl)pyridin-2-yl)ethyl)urea]
pEC50: 8.21 | % of maximum agonist effect (relative to Orexin A): 100.7%

CC[C@H](CC(F)(F)F)NC(=O)N(CC)C(c1cc(-c2cn3ccnc3c(OC)n2)c(OC)cn1)C(F)(F)F (stereo partly drawn) [Example 6-2, 1-ethyl-1-(2,2,2-trifluoro-1-(5-methoxy-4-(8-methoxyimidazo[1,2-a]pyrazin-6-yl)pyridin-2-yl)ethyl)-3-((R)-1,1,1-trifluoropentan-3-yl)urea]
pEC50: 8.09 | % of maximum agonist effect (relative to Orexin A): 100.1%

CC[C@H](CCC(F)(F)F)NC(=O)N(CC)[C@H](C)c1ccc(OC)c(-c2cc(C)c3nccn3c2)c1 [Example 8-3, 1-ethyl-1-((R)-1-(4-methoxy-3-(8-methylimidazo[1,2-a]pyridin-6-yl)phenyl)ethyl)-3-((R)-6,6,6-trifluorohexan-3-yl)urea]
pEC50: 7.98 | % of maximum agonist effect (relative to Orexin A): 96.6%

CCN(C(=O)NC(CCC(C)=O)C(F)(F)F)[C@H](C)c1cccc(-c2cn3ccnc3c(OC)n2)c1 (stereo partly drawn) [Example 2-54, 1-ethyl-1-((R)-1-(3-(8-methoxyimidazo[1,2-a]pyrazin-6-yl)phenyl)ethyl)-3-(1,1,1-trifluoro-5-oxohexan-2-yl)urea]
pEC50: 8.80 | % of maximum agonist effect (relative to Orexin A): 99.4%

CCN(C(=O)N[C@@H](COC1CC1)C(F)(F)F)[C@@H](c1cc(-c2cn3cc(C)nc3c(OC)n2)c(OC)cn1)C(F)(F)F [Example 2-18, 3-((S)-3-cyclopropoxy-1,1,1-trifluoropropan-2-yl)-1-ethyl-1-((S)-2,2,2-trifluoro-1-(5-methoxy-4-(8-methoxy-2-methylimidazo[1,2-a]pyrazin-6-yl)pyridin-2-yl)ethyl)urea]
pEC50: 7.52 | % of maximum agonist effect (relative to Orexin A): 99.6%

CCN(C(=O)N[C@@H](CCC(F)(F)F)C(F)(F)F)C(c1cc(-c2cn3cc(C)nc3c(OC)n2)c(OC)cn1)C(F)F (stereo partly drawn) [Example 2-17, 1-(2,2-difluoro-1-(5-methoxy-4-(8-methoxy-2-methylimidazo[1,2-a]pyrazin-6-yl)pyridin-2-yl)ethyl)-1-ethyl-3-((S)-1,1,1,5,5,5-hexafluoropentan-2-yl)urea]
pEC50: 8.49 | % of maximum agonist effect (relative to Orexin A): 101.7%

CCN(C(=O)N[C@@H](CCC(F)(F)F)C(F)(F)F)[C@H](C)c1cccc(-c2cc(OC)c3ncc(Cl)n3c2)c1 [Example 8-9, 1-((R)-1-(3-(3-chloro-8-methoxyimidazo[1,2-a]pyridin-6-yl)phenyl)ethyl)-1-ethyl-3-((S)-1,1,1,5,5,5-hexafluoropentan-2-yl)urea]
pEC50: 9.15 | % of maximum agonist effect (relative to Orexin A): 99.7%

CCN(C(=O)NC(CC(=O)N(C)C)C(F)(F)F)[C@H](C)c1cccc(-c2cn3ccnc3c(OC)n2)c1 (single isomer, unassigned) [Example 24]
pEC50: 6.84 | % of maximum agonist effect (relative to Orexin A): 89.1%

CCN(C(=O)N[C@@H](C=C(C)C)C(F)(F)F)[C@H](C)c1cccc(-c2cn3ccnc3c(OC)n2)c1 [Example 20, 1-ethyl-1-((R)-1-(3-(8-methoxyimidazo[1,2-a]pyrazin-6-yl)phenyl)ethyl)-3-((S)-1,1,1-trifluoro-4-methylpent-3-en-2-yl)urea]
% of maximum agonist effect (relative to Orexin A) (1 µM): 100.1%

CCN(C(=O)N[C@@H](CCC(F)(F)F)C(F)(F)F)C(c1cc(-c2cn3ccnc3c(OC)n2)cnc1OC)C(F)(F)F (stereo partly drawn) [Example 10-17, 1-ethyl-3-((S)-1,1,1,5,5,5-hexafluoropentan-2-yl)-1-(2,2,2-trifluoro-1-(2-methoxy-5-(8-methoxyimidazo[1,2-a]pyrazin-6-yl)pyridin-3-yl)ethyl)urea]
pEC50: 7.05 | % of maximum agonist effect (relative to Orexin A): 100.5%

CCN(C(=O)N[C@@H](CCCF)C(F)F)[C@@H](c1cc(-c2cn3ncnc3c(OC)n2)c(OC)cn1)C(F)(F)F [Example 4-3, 1-ethyl-1-((S)-2,2,2-trifluoro-1-(5-methoxy-4-(8-methoxy-[1,2,4]triazolo[1,5-a]pyrazin-6-yl)pyridin-2-yl)ethyl)-3-((S)-1,1,5-trifluoropentan-2-yl)urea]
pEC50: 7.76 | % of maximum agonist effect (relative to Orexin A): 101.4%

CCN(C(=O)N[C@@H](CCC(F)(F)F)C(F)F)[C@@H](c1cc(-c2cn3cc(C)nc3c(OC)n2)c(OC)cn1)C(F)(F)F [Example 4-1, 1-ethyl-3-((S)-1,1,5,5,5-pentafluoropentan-2-yl)-1-((S)-2,2,2-trifluoro-1-(5-methoxy-4-(8-methoxy-2-methylimidazo[1,2-a]pyrazin-6-yl)pyridin-2-yl)ethyl)urea]
pEC50: 8.32 | % of maximum agonist effect (relative to Orexin A): 101.6%

CCN(C(=O)N[C@@H](CCC(F)(F)F)C(F)(F)F)C(C)c1ccnc(-c2cn3ccnc3c(OC)n2)c1 (stereo partly drawn) [Example 13-1, 1-ethyl-3-((S)-1,1,1,5,5,5-hexafluoropentan-2-yl)-1-(1-(2-(8-methoxyimidazo[1,2-a]pyrazin-6-yl)pyridin-4-yl)ethyl)urea]
pEC50: 7.93 | % of maximum agonist effect (relative to Orexin A): 101.4%

CC[C@H](CCC(F)(F)F)NC(=O)N(CC)[C@H](C)c1cccc(-c2cc3c(c(OC)c2)NCC3)c1 [Example 25, 1-ethyl-1-((R)-1-(3-(7-methoxyindolin-5-yl)phenyl)ethyl)-3-((R)-6,6,6-trifluorohexan-3-yl)urea]
pEC50: 6.21 | % of maximum agonist effect (relative to Orexin A): 98.5%

CCN(C(=O)NC1CC(CC(F)(F)F)C1)[C@@H](c1cc(-c2cn3ccnc3c(OC)n2)c(OC)cn1)C(F)(F)F (stereo partly drawn) [Example 2-30, (S)-1-ethyl-1-(2,2,2-trifluoro-1-(5-methoxy-4-(8-methoxyimidazo[1,2-a]pyrazin-6-yl)pyridin-2-yl)ethyl)-3-(3-(2,2,2-trifluoroethyl)cyclobutyl)urea]
pEC50: 7.46 | % of maximum agonist effect (relative to Orexin A): 99.0%

CCN(C(=O)N[C@@H](C)C(F)(F)F)C(c1cnc(OC)c(-c2cn3ccnc3c(OC)n2)c1)C(F)(F)F (stereo partly drawn) [Example 2-62, 1-ethyl-1-(2,2,2-trifluoro-1-(6-methoxy-5-(8-methoxyimidazo[1,2-a]pyrazin-6-yl)pyridin-3-yl)ethyl)-3-((S)-1,1,1-trifluoropropan-2-yl)urea]
pEC50: 7.88 | % of maximum agonist effect (relative to Orexin A): 95.6%

CCN(C(=O)N[C@@H](CCC(F)(F)F)C(F)(F)F)[C@@H](c1cc(-c2cc(OC)c3nccn3c2)c(OC)cn1)C(F)(F)F [Example 9-1, 1-ethyl-3-((S)-1,1,1,5,5,5-hexafluoropentan-2-yl)-1-((S)-2,2,2-trifluoro-1-(5-methoxy-4-(8-methoxyimidazo[1,2-a]pyridin-6-yl)pyridin-2-yl)ethyl)urea]
pEC50: 9.05 | % of maximum agonist effect (relative to Orexin A): 99.7%
